Assay [1] concerns the target Activin receptor type-1-like (Homo sapiens) (UniProt P37023). The experiment in a line: Inhibition of human ALK1 at 18.6 nM by HotSpot assay relative to control.
Assay [2] addresses Tyrosine-protein kinase FRK (Homo sapiens) (UniProt P42685). The experiment in a line: Inhibition of human FRK at 18.6 nM by HotSpot assay relative to control.
The target of assay [3] is T1, Beta-adrenergic receptor kinase 1 (Homo sapiens) (UniProt P25098).
T1 sequence (whole entry): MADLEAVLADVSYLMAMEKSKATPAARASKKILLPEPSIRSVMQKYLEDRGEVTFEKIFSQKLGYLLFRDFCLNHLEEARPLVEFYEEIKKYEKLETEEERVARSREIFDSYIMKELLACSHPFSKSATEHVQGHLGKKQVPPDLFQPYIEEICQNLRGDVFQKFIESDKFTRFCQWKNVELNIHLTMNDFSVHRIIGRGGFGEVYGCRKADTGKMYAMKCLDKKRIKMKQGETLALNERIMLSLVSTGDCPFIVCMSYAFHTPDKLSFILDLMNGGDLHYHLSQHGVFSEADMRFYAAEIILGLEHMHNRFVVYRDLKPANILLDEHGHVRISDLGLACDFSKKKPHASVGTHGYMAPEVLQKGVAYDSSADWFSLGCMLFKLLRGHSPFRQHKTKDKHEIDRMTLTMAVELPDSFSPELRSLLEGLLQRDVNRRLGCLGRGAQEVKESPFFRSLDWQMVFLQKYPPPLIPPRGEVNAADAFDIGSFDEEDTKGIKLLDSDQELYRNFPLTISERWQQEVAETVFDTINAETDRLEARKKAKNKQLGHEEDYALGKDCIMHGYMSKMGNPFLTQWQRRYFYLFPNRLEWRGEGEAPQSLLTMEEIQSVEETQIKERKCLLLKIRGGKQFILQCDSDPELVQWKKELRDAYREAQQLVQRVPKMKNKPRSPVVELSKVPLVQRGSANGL
The experiment in a line: Inhibition of human GRK2 at 18.6 nM by HotSpot assay relative to control.

For assay [4], the target named is T2, Mitogen-activated protein kinase kinase kinase 2 (Homo sapiens) (UniProt Q9Y2U5).
T2 sequence (whole entry): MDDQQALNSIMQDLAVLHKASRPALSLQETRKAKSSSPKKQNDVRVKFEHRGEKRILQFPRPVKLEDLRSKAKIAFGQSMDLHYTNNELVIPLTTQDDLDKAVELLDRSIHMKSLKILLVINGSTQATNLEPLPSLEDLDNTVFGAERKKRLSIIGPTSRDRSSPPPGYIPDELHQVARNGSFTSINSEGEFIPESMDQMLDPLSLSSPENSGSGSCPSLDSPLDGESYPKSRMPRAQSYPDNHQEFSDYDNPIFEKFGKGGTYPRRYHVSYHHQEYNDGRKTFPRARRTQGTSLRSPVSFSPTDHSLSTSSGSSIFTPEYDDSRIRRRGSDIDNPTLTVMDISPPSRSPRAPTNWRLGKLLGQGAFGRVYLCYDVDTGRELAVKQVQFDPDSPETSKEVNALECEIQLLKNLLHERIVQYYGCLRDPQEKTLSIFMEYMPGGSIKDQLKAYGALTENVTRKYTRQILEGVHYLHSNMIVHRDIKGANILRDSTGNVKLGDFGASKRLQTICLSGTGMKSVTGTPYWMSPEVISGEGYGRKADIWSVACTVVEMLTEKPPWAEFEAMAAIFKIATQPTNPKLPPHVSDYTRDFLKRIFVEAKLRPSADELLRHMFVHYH
The experiment in a line: Inhibition of human MEKK2 at 18.6 nM by HotSpot assay relative to control.

In assay [5] the target is RAC-alpha serine/threonine-protein kinase (Homo sapiens) (UniProt P31749). The experiment in a line: Inhibition of human AKT1 at 1.82 nM by HotSpot assay relative to control.
Chain of RAC-alpha serine/threonine-protein kinase (Homo sapiens) (P31749 whole entry): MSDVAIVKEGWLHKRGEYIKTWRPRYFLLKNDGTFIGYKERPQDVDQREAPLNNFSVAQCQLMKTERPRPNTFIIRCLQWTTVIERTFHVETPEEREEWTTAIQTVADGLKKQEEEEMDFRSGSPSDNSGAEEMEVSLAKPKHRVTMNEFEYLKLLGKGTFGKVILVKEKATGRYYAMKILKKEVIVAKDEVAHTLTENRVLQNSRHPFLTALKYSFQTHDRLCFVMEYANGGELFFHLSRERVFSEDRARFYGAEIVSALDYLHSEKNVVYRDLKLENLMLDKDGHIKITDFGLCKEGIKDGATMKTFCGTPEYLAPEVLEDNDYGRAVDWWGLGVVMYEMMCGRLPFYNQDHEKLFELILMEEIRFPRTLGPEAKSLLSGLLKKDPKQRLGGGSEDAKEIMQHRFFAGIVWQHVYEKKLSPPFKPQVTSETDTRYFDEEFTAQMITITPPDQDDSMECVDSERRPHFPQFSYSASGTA
Assay [6] deals with Mitogen-activated protein kinase 3 (Homo sapiens) (UniProt P27361). Put plainly: Inhibition of human ERK1 at 1.82 nM by HotSpot assay relative to control.
Chain of Mitogen-activated protein kinase 3 (Homo sapiens) (P27361 whole entry): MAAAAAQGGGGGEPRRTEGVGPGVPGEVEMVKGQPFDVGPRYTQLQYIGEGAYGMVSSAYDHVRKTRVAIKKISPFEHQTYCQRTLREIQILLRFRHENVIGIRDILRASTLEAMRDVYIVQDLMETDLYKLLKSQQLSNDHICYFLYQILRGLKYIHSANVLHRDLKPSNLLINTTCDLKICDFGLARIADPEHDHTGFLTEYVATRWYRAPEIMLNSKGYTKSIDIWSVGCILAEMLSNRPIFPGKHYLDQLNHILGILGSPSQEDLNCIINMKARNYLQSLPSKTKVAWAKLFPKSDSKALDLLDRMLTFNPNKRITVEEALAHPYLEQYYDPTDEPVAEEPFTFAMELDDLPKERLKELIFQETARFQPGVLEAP
In assay [7] the target is Dual specificity mitogen-activated protein kinase kinase 1 (Homo sapiens) (UniProt Q02750). The experiment in a line: Inhibition of human MEK1 at 1.82 nM by HotSpot assay relative to control.
Chain of Dual specificity mitogen-activated protein kinase kinase 1 (Homo sapiens) (Q02750 whole entry): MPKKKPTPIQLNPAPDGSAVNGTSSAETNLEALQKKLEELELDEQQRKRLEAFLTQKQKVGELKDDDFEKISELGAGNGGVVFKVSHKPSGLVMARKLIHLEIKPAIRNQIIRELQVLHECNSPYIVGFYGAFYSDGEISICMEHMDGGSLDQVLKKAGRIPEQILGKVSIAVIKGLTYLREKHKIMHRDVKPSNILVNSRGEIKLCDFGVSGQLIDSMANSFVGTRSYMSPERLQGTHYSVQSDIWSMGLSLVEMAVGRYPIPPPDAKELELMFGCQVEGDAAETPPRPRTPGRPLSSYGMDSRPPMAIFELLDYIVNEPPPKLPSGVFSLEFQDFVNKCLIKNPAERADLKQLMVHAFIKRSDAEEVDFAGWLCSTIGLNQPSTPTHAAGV
The target in assay [8] is Serine/threonine-protein kinase PAK 1 (Homo sapiens) (UniProt Q13153). Put plainly: Inhibition of human PAK1 at 1.82 nM by HotSpot assay relative to control.
Chain of Serine/threonine-protein kinase PAK 1 (Homo sapiens) (Q13153 whole entry): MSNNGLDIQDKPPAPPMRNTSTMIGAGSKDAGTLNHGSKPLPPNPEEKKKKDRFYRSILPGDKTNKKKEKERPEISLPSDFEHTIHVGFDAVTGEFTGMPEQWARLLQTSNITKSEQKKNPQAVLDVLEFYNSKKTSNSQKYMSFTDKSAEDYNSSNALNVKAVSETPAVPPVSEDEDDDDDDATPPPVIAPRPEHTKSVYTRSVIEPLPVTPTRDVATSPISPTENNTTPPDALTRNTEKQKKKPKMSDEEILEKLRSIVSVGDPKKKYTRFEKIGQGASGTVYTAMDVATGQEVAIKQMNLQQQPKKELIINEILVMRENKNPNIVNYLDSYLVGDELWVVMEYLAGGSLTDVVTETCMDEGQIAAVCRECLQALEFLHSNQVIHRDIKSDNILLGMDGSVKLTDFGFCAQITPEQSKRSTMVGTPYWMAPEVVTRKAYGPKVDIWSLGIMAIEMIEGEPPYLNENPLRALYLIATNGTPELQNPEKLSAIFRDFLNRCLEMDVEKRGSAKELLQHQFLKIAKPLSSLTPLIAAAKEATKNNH
For assay [9], the target named is T3, Dual serine/threonine and tyrosine protein kinase (Homo sapiens) (UniProt Q6XUX3).
T3 sequence (whole entry): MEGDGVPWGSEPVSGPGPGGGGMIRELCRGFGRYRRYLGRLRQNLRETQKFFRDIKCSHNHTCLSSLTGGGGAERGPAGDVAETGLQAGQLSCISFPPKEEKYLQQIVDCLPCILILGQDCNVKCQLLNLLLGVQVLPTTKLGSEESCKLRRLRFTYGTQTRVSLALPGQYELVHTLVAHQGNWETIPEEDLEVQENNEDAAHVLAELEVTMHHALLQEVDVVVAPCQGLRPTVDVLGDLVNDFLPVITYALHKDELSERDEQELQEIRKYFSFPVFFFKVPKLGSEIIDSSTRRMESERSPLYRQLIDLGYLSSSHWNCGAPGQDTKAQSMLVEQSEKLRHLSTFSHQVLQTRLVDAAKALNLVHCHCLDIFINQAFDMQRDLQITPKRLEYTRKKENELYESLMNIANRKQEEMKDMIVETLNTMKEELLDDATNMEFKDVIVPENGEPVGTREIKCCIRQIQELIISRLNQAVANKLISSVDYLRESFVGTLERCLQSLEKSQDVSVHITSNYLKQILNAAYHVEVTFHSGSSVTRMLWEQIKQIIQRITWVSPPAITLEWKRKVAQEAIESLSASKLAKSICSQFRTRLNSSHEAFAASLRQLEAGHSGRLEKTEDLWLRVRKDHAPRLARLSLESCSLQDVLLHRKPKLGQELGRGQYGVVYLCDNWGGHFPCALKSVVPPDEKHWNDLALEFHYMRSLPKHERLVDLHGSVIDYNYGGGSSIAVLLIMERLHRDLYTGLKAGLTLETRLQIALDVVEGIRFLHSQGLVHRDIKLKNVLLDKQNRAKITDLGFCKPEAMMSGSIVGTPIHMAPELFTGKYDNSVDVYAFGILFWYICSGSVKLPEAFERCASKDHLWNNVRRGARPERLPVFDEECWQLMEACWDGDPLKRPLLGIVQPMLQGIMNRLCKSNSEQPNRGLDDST
Put plainly: Inhibition of human RIPK5 at 1.82 nM by HotSpot assay relative to control.

The target of assay [10] is ALK tyrosine kinase receptor (Homo sapiens) (UniProt Q9UM73). Put plainly: Inhibition of human ALK at 500 nM by HotSpot assay relative to control.
Chain of ALK tyrosine kinase receptor (Homo sapiens) (Q9UM73 19-1620 limits assumed): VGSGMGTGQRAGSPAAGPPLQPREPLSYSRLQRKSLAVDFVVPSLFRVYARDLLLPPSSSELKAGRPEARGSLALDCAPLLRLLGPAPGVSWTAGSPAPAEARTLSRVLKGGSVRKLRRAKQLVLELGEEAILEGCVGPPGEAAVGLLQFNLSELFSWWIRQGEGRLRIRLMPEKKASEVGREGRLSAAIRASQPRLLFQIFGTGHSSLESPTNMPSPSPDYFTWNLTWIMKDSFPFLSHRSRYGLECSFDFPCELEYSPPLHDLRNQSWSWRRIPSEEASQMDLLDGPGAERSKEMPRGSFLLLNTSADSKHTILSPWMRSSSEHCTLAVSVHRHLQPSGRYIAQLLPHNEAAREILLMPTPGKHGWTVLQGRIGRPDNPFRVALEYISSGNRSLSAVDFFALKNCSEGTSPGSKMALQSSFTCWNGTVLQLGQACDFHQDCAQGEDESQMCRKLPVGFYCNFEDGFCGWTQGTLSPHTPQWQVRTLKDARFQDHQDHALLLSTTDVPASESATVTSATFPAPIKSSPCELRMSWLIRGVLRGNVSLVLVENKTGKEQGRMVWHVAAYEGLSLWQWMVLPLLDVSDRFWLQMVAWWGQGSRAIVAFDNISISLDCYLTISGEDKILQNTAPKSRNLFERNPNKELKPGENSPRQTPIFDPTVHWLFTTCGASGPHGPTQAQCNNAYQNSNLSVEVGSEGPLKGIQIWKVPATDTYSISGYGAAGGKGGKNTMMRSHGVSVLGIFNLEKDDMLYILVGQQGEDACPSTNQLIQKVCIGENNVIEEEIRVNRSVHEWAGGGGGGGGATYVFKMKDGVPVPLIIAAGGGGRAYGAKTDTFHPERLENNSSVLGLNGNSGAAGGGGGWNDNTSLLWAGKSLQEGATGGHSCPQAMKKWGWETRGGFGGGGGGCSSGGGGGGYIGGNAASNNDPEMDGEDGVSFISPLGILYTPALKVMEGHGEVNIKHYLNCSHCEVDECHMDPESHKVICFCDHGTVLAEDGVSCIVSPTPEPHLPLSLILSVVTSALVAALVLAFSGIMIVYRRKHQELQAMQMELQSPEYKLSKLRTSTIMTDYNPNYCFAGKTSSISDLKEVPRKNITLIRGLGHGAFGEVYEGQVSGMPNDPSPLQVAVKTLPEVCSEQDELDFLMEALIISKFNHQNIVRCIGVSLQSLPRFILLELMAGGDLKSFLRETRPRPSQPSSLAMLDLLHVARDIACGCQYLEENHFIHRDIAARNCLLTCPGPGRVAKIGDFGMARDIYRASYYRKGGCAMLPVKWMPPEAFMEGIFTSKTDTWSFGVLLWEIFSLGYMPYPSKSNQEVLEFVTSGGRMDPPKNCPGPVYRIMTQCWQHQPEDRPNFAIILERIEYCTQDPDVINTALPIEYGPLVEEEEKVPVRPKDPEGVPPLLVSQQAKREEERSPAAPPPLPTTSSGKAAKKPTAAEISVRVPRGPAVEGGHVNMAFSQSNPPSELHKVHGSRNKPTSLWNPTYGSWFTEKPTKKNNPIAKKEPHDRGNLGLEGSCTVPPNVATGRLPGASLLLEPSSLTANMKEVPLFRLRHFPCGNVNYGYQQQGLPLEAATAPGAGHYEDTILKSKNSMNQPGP

Chain of Tyrosine-protein kinase FRK (Homo sapiens) (P42685 whole entry): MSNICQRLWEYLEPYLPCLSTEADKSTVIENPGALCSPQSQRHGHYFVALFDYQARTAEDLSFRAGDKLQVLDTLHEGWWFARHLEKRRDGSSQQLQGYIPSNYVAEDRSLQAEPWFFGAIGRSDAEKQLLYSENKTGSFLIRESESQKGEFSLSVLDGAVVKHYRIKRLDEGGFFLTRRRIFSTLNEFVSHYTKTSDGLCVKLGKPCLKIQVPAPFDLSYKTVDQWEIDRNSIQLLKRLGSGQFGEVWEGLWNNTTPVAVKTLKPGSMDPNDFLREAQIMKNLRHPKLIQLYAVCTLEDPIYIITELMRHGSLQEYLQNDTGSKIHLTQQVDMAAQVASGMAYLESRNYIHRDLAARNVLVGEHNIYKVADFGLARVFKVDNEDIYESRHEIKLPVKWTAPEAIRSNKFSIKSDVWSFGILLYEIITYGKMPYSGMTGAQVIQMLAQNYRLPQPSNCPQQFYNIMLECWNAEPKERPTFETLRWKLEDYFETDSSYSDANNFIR
Chain of Activin receptor type-1-like (Homo sapiens) (P37023 whole entry): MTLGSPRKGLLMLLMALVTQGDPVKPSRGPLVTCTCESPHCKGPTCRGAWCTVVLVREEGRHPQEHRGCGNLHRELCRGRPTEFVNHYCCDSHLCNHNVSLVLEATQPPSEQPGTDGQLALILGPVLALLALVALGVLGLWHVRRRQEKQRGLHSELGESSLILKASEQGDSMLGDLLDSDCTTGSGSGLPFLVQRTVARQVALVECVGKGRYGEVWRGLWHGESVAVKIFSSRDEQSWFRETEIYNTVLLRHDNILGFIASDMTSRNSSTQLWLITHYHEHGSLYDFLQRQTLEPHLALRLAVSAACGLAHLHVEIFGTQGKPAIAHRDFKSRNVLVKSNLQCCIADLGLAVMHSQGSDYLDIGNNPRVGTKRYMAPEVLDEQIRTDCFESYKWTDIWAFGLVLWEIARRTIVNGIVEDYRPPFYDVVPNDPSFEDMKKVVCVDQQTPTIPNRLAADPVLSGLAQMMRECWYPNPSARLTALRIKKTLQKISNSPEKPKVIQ

In the case of `C[C@]1(O)C[C@@H](c2nc(-c3ccc4ccc(-c5ccccc5)nc4c3)c3c(N)nccn32)C1`, the inhibition – broadly, the drop in the measured response relative to a control, in per cent – in assay [1] is 1.51%; in assay [2] it was -0.1%; in assay [3], -1%; in [4], -2.2%.

For `C[C@@]1(C(=O)Nc2ccc(F)nc2)CCCN1c1nc(Nc2cc(C3CC3)n[nH]2)c2cccn2n1`, the inhibition in assay [5] was 1.89%; in assay [6] it was -2.81%; in assay [7] it was -6.3%; in assay [8], 1.83%; in assay [9], 4.61%.

For the compound `Nc1n[nH]c2nnc(-c3c(-c4ccccc4)nn4ccccc34)cc12`, the inhibition in assay [10] is -7.89%.

For the origin of these results see ChEMBL document CHEMBL5653615 (J Biol Chem, 2013).
